Paper PMC5064002, “Sintokamide A Is a Novel Antagonist of Androgen Receptor That Uniquely Binds Activation Function-1 in Its Amino-terminal Domain” (The Journal of Biological Chemistry, 2016)

Legend:
LNCaP xenografts = experiment: LNCaP CRPC xenografts in castrated mice; type: in vivo, NOD-SCID mice
Experimental: Male NOD-SCID mice bearing subcutaneous LNCaP or LNCaP95 tumors were castrated when the tumor volume reached ∼100 mm^3. Seven days after castration, animals were injected intratumorally with 30 mg/kg of body weight SINT1 or a matching volume of vehicle (DMSO) every 3 days for a total of 15 days. Animal behavior and body weight were observed throughout the study period for signs of toxicity. Tumor volumes were calculated by the formula length × width × height × 0.5236. Tumors were excised 3 days after the last injection and prepared for immunohistochemistry or gene expression.
Xenograft sections were stained with hematoxylin and eosin and for Ki67 expression by Wax it Histology Inc. Cells that were positive for Ki67 were counted in sections from three xenografts for each treatment. For PSA and AR staining, dewaxed sections were microwaved for 10 min on full power in prewarmed Antigen Unmasking Solution (pH 6; Vector Laboratories, Inc.). The endogenous peroxidase activity was blocked by incubation in 3% H2O2 for 10 min followed by incubation in Clear Vision Histostaining Blocking Solution (UniCure Lab, Inc.) for 1 h at room temperature. Sections were incubated with AR-N20 (1:500 dilution) and PSA (1:5 dilution; overnight at 4 °C) primary antibodies. Samples were then incubated for 30 min at room temperature with secondary antibodies and mounted in Permount mounting medium (SP15–100, Fisher).

[1] = Lability of SINT1 over the course of the studies; type: physicochemical; settings: activity decreased over the course of the studies
Experimental: SINT1 is labile, and over the course of completing these studies its activity decreased. […] Therefore, we first evaluated its pharmacokinetics before in vivo studies were carried out to determine dose and route of delivery.

AR = target: T1, AR (Homo sapiens, UniProt P10275, T878A); experiment: AR-responsive luciferase reporters (PSA (6.1 kb), PB, ARR3) in LNCaP cells, SINT1 and EPI-002 alone or combined; type: cell-based; settings: 1 nM R1881 48 h
T1 construct: endogenous in cells; host or cells: LNCaP
T1 sequence (P10275 1-920 T878A): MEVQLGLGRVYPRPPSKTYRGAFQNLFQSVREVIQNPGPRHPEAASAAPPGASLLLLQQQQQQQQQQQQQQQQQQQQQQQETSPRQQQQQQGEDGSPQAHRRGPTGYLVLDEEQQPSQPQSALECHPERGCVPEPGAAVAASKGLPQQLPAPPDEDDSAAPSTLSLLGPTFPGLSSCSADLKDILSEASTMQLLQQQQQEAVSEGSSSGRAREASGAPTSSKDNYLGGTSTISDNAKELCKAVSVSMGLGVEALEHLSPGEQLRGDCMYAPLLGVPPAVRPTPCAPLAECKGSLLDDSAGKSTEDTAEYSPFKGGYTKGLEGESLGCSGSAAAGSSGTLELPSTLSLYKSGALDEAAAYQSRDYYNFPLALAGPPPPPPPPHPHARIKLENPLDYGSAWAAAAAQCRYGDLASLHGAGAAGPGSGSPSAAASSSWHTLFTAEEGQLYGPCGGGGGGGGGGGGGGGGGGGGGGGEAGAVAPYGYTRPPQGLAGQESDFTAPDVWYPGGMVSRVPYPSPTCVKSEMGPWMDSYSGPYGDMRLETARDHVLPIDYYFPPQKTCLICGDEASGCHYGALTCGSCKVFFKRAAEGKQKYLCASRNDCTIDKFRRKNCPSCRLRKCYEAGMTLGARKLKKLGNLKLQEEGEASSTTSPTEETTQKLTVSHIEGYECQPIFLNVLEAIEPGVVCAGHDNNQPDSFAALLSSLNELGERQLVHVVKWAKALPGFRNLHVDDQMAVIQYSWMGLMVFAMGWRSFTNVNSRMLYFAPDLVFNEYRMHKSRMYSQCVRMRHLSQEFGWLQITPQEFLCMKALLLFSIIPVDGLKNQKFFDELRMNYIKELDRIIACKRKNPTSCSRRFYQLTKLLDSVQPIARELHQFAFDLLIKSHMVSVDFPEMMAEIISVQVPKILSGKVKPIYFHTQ
Experimental: LNCaP cells were transfected with AR-responsive PSA (6.1 kb)-luciferase, PB-luciferase, and ARR3-luciferase reporters. Forty-eight hours later, cells were pretreated for 1 h with SINT1 (0–24 μM), EPI-002 (0–31 μM), or a combination with a constant ratio of 1:1.3 for EPI-002/SINT1 concentration. Cells were then incubated with 1 nM R1881 for 48 h, and a luciferase assay was performed. IC50 values for SINT1 for the three reporters were calculated using GraphPad Prism (version 6.01; GraphPad Software). The combination index of SINT1 and EPI-002 was calculated using CalcuSyn software. Combination indices >1, 1, and <1 indicate antagonism, additive affect, and synergy, respectively.

CCC(=O)NC(CC(C)C(Cl)(Cl)Cl)C(=O)N1C(=O)C=C(OC)C1CC(C)C(Cl)Cl (stereo not drawn) [SINT1, Sintokamide A]
CRPC tumor overall growth (LNCaP xenografts; castrated mice, 30 mg/kg intratumorally every 3 days, five doses, n = 8, p = 0.0495): 112 ± 13% | animals achieving a serum PSA drop of ≥50% (LNCaP xenografts; day 15 vs day of first dose): six | number of Ki67-positive cells in harvested xenografts (LNCaP xenografts; immunohistochemistry): reduced | levels of PSA in xenografts (LNCaP xenografts; immunohistochemistry, vs vehicle control): marked decreases | levels and cellular localization of AR protein in xenografts (LNCaP xenografts; immunohistochemistry, vs vehicle-treated): similar | stability [1]: labile | IC50 (AR; IC50, ARR3-Luc): 13.2 ± 1.19 µM | IC50 (AR; IC50, PB-Luc): 11.6 ± 0.78 µM | IC50 (AR; IC50, PSA (6.1 kb)-Luc): 10.7 ± 1.55 µM
